We go through 16 compounds from US20230406838A1, “MUTANT SELECTIVE EGFR INHIBITORS AND METHODS OF USE THEREOF” (Dana-Farber Cancer Institute, Inc., priority 2020, published 2023).

Assay [1] has as its target EGFR WT (Homo sapiens, UniProt P00533). The experiment in a line: HTRF-based EGFR biochemical assay, WT. To be noted: 100 μM ATP, enzyme 5 nM. A general note: Time-resolved FRET reads energy transfer from a long-lived donor to a nearby acceptor.
Assay [2] concerns the target EGFR L858R (Homo sapiens, UniProt P00533, L858R). The assay can be described thus: HTRF-based EGFR biochemical assay, L858R. To be noted: 100 μM ATP, enzyme 0.1 nM. As to the method:
(§1) EGFR biochemical activity measurements were carried out using the homogeneous time-resolved fluorescence (HTRF) assay (Cisbio). Inhibitors and DMSO normalizations were first dispensed to empty black low-volume 384-well plates (Corning) with D300 digital liquid dispenser (HP). All reactions were carried out at room temperature and solutions were added to plates with a Multidrop Combi Reagent Dispenser (ThermoFisher). The reaction mixture (10 μL final volume) contained 1 μM tyrosine kinase peptide-biotin substrate and mutant EGFR in a reaction buffer (50 mM HEPES pH 7.0, 5 mM MgCl2, 1 mM MnCl2, 0.01% BSA, 2 mM TCEP, 0.1 mM NaVO4). […] Enzyme reaction solution (2× concentrations, 5 μL) was added to 384-well plates containing compounds and incubated for 30 mins. Enzyme reactions were initiated with the addition of 5 μL of ATP to a final concentration of 100 μM and reacted for 20 mins.

Assay [3] addresses EGFR L858R/T790M (Homo sapiens, UniProt P00533, L858R/T790M). The assay can be described thus: HTRF-based EGFR biochemical assay, L858R/T790M. The conditions noted are these: 100 μM ATP, enzyme 0.02 nM. How it is done:
as §1

For assay [4], the target named is EGFR L858R/T790M/C797S (Homo sapiens, UniProt P00533, C797S/L858R/T790M). The assay can be described thus: HTRF-based EGFR biochemical assay, L858R/T790M/C797S. To be noted: 100 μM ATP, enzyme 0.02 nM. As to the method:
as §1

Some results are limits rather than exact numbers.

Sequence of EGFR WT (P00533 25-1210): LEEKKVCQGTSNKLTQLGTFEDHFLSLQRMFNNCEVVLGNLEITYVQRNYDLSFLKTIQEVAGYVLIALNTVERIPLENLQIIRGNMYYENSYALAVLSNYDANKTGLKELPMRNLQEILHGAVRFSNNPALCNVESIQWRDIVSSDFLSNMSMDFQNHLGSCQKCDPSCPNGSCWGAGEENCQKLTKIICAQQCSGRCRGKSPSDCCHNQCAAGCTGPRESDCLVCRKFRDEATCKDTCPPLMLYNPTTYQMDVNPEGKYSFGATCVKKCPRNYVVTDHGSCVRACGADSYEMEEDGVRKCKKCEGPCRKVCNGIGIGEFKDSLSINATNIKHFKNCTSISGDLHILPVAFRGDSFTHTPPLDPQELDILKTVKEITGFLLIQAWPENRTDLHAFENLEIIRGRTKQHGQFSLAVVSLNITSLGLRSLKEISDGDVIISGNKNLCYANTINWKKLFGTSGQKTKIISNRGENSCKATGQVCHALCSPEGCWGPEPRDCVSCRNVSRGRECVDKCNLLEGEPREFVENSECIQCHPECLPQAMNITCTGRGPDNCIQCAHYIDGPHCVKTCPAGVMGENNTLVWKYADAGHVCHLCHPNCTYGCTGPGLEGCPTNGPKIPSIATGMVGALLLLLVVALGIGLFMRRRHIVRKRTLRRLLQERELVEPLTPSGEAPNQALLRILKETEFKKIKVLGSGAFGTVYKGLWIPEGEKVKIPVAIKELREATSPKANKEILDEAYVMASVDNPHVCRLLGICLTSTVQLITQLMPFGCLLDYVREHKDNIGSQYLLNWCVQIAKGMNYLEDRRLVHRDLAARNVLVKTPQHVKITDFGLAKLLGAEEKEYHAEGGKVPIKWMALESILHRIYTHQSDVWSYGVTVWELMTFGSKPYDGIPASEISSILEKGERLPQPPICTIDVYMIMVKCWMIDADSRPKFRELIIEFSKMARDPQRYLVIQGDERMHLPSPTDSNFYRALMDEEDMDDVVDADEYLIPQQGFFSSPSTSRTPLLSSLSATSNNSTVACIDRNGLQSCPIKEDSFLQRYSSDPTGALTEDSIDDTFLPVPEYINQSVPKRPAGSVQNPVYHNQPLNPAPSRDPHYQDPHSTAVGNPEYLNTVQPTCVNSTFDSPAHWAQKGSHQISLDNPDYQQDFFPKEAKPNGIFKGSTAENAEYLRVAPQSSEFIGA
Sequence of EGFR L858R/T790M (P00533 25-1210 T790M/L858R): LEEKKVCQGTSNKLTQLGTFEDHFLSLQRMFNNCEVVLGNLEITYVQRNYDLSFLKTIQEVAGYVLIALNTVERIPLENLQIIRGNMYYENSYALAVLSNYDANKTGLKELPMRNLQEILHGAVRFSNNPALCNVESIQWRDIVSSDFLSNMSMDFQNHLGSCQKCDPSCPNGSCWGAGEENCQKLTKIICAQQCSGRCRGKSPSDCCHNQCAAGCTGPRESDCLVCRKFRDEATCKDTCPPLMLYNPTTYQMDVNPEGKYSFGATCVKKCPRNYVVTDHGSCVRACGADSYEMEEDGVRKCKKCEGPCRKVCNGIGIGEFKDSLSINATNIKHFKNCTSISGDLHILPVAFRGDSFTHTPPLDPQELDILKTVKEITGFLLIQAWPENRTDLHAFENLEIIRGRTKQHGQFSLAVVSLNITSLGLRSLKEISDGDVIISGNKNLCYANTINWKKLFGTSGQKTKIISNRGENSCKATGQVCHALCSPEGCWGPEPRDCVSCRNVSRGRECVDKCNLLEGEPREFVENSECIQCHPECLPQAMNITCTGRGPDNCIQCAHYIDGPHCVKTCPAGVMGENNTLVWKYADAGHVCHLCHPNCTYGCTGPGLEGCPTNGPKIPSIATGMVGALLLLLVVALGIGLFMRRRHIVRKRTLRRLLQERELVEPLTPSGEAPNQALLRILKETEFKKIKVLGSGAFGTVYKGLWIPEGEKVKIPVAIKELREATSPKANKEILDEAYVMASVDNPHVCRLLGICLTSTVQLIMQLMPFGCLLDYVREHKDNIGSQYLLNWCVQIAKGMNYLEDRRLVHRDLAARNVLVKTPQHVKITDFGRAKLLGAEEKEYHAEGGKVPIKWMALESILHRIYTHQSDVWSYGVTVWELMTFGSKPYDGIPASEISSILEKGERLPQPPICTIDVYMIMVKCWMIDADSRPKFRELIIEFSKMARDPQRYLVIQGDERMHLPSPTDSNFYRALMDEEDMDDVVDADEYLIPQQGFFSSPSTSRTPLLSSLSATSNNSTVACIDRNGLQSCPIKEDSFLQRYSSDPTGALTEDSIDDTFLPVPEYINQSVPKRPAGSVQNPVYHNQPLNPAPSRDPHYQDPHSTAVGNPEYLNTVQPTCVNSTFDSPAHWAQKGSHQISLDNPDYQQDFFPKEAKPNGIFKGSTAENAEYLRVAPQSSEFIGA
Sequence of EGFR L858R/T790M/C797S (P00533 25-1210 T790M/C797S/L858R): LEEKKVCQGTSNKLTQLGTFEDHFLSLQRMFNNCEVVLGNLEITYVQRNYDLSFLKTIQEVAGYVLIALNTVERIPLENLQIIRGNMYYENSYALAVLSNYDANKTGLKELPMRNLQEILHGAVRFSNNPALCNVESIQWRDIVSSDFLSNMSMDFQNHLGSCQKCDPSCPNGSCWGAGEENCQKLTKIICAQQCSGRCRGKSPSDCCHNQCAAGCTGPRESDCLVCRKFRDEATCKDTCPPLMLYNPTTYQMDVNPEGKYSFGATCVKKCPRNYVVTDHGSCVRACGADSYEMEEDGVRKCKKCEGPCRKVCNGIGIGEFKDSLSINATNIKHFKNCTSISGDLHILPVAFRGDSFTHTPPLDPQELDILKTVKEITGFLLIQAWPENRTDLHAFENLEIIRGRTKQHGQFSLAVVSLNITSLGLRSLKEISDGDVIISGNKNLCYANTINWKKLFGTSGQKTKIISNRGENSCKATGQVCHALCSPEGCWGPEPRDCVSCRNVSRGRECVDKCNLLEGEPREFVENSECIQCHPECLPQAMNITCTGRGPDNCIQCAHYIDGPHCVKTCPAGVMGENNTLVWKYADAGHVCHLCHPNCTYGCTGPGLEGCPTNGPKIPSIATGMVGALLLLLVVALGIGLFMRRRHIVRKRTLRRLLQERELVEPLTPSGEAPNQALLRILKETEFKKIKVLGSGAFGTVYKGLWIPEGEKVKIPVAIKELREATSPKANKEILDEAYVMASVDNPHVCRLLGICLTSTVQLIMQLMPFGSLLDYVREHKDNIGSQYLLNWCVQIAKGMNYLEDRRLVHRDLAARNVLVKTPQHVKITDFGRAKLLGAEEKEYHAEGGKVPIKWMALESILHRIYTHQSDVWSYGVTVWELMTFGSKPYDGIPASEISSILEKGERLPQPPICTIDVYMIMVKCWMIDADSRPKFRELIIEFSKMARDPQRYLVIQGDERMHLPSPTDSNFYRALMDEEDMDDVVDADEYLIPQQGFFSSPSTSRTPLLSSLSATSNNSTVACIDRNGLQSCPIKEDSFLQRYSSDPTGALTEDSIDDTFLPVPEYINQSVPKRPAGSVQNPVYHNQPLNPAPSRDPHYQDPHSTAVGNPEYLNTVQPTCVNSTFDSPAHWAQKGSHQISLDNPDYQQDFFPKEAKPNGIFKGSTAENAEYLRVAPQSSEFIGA
Sequence of EGFR L858R (P00533 25-1210 L858R): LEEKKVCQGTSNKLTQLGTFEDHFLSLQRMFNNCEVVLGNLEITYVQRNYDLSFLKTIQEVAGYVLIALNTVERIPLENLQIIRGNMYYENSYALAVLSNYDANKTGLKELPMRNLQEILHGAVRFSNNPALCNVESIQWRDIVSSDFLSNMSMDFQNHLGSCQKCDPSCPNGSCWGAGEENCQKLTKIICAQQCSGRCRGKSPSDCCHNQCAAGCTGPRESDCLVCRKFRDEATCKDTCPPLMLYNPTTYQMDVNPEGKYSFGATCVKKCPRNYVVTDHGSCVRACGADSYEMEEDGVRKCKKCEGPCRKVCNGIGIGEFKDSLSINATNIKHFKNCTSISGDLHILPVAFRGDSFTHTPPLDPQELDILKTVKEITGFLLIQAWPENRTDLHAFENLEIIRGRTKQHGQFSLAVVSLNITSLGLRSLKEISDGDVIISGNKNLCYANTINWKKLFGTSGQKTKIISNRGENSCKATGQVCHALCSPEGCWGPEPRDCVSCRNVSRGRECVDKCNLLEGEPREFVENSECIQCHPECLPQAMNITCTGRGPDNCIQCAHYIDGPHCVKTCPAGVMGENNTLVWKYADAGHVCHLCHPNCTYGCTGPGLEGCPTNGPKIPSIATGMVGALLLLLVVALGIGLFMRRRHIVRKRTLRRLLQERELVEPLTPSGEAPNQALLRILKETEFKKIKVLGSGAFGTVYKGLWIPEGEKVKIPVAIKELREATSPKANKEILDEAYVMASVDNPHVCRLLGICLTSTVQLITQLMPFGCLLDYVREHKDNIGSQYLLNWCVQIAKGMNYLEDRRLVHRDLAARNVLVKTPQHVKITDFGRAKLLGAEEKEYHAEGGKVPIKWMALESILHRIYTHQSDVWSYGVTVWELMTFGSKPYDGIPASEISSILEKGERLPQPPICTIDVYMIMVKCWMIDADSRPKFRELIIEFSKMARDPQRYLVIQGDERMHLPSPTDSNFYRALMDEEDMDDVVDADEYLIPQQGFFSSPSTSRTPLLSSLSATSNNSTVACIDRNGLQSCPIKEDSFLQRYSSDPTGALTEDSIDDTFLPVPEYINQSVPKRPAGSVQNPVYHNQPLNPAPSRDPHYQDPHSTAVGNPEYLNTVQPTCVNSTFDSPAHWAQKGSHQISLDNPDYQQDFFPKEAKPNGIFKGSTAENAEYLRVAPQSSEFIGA

Take `CSc1nc(-c2cccc(NC(=O)c3c(F)ccc(O)c3CN3Cc4ccccc4C3=O)c2)c[nH]1` [Compound 058, 6-fluoro-3-hydroxy-N-(3-(2-(methylthio)-1H-imidazol-4-yl)phenyl)-2-((1-oxoisoindolin-2-yl)methyl)benzamide]: the IC50 in assay [1], in assay [2], in assay [3] and in assay [4] was greater than 100 µM in each case.

Take `CSc1nc(-c2cccc(NC(=O)c3c(F)cccc3F)c2)c(-c2ccnc(Nc3ccccc3)c2)[nH]1` [Compound 010, 2,6-difluoro-N-(3-(2-(methylthio)-5-(2-(phenylamino)pyridin-4-yl)-1H-imidazol-4-yl)phenyl)benzamide]: the IC50 in assay [1] is 0.015 µM; in assay [2], 0.032 µM; in assay [3] it was 2.38 µM.

Take `CSc1nc(-c2ccnc(NC(C)=O)c2)c(-c2cccc(NC(=O)c3c(F)ccc(O)c3CN3Cc4ccccc4C3=O)c2)n1C` [Compound 059, N-(3-(4-(2-acetamidopyridin-4-yl)-1-methyl-2-(methylthio)-1H-imidazol-5-yl)phenyl)-6-fluoro-3-hydroxy-2-((1-oxoisoindolin-2-yl)methyl)benzamide]: the IC50 is greater than 100 µM in assay [1], 3.07 µM in assay [2], greater than 100 µM in assay [3] and greater than 100 µM in assay [4].

As for `CSc1nc(-c2cccc(NC(=O)c3cc(O)ccc3F)c2)c[nH]1` [Compound 060], the IC50 in assay [1], in assay [3] and in assay [4] was greater than 100 µM in each case.

Turning to `CSc1nc(-c2cc(NC(=O)Cc3ccccc3)cs2)c(-c2ccnc(NC(C)=O)c2)[nH]1` [Compound 012, N-(5-(5-(2-acetamidopyridin-4-yl)-2-(methylthio)-1H-imidazol-4-yl)thiophen-3-yl)-2-phenylacetamide], the IC50 in assay [2] and in assay [3] was greater than 100 µM each time.

With `CSc1nc(-c2cccc(NC(=O)Nc3ccccc3)c2)c(-c2ccnc(NC(C)=O)c2)[nH]1` [Compound 005, N-(4-(2-(methylthio)-4-(3-(3-phenylureido)phenyl)-1H-imidazol-5-yl)pyridin-2-yl)acetamide], the IC50 in assay [2] was 3.6 µM; in assay [3], 3.71 µM.

In the case of `CSc1nc(-c2cccc3c2CCC3NC(=O)c2cccc3[nH]ccc23)c(-c2ccnc(NC(C)=O)c2)[nH]1` (centres unmarked) [Compound 056, N-(4(5-(2-acetamidopyridin-4-yl)-2-(methylthio)-1H-imidazol-4-yl)-2,3-dihydro-1H-inden-1-yl)-1H-indole-4-carboxamide], the IC50 in assay [2] and in assay [3] was greater than 100 µM in each case.

For the compound `CSc1nc(-c2cccc3c2CCC3NC(=O)c2c(F)cccc2F)c(-c2ccnc(NC(C)=O)c2)[nH]1` (centres unmarked) [Compound 055, N-(4-(5-(2-acetamidopyridin-4-yl)-2-(methylthio)-1H-imidazol-4-yl)-2,3-dihydro-1H-inden-1-yl)-2,6-difluorobenzamide], the IC50 in assay [2] and in assay [3] was greater than 100 µM in each case.

As for `CSc1nc(-c2cccc(NC(=O)Nc3cccc(C(F)(F)F)c3)c2)c(-c2ccnc(NC(C)=O)c2)[nH]1` [Compound 016, N-(4(2-(methylthio)-4-(3-(3-(3-(trifluoromethyl)phenyl)ureido)phenyl)-1H-imidazol-5-yl)pyridin-2-yl)acetamide], the IC50 in assay [2] was found to be 0.512 µM; in assay [3], 0.857 µM.

Consider `CSc1nc(-c2ccccc2NC(=O)Nc2ccc(Br)cc2)c(-c2ccnc(NC(C)=O)c2)[nH]1` [Compound 019, N-(4-(4-(2(3-(4-bromophenyl)ureido)phenyl)-2-(methylthio)-1H-imidazol-5-yl)pyridin-2-yl)acetamide], for which the concentration for half-maximal inhibition (IC50) in assay [2] and in assay [3] was greater than 100 µM throughout.

In the case of `CSc1nc(-c2ccccc2NC(=O)c2cc(C)cs2)c(-c2ccnc(NC(C)=O)c2)[nH]1` [Compound 026, N-(2-(5-(2-acetamidopyridin-4-yl)-2-(methylthio)-1H-imidazol-4-yl)phenyl)-4-methyl-thiophene-2-carboxamide], the IC50 in assay [2] and in assay [3] was greater than 100 µM throughout.

As to `CSc1nc(-c2cccc(NC(=O)Cc3c(F)cccc3F)c2)c(-c2ccnc(NC(C)=O)c2)[nH]1` [Compound 053, N-(3-(5-(2-acetamidopyridin-4-yl)-2-(methylthio)-1H-Imidazol-4-yl)phenyl)-2-(2,6-difluorophenyl)acetamide], the IC50 was 1.3 µM in assay [2] and 0.799 µM in assay [3].

As to `CSc1nc(-c2cccc(NC(=O)Nc3ccccc3)c2)c(-c2ccnc(NC(C)=O)c2)[nH]1` [Compound 020, N-(4-(2-(methylthio)-4-(3-(3-phenylureido)phenyl)-1H-imidazol-5-yl)pyridin-2-yl)acetamide], the IC50 in assay [2] and in assay [3] was greater than 100 µM throughout.

For `CSc1nc(-c2cccc(NC(=O)Nc3ccc(F)c(Cl)c3)c2)c(-c2ccnc(NC(C)=O)c2)[nH]1` [Compound 018], the IC50 in assay [2] was 1.6 µM; in assay [3], 2.2 µM.

`CSc1nc(-c2ccccc2NC(=O)c2ccccc2O)c(-c2ccnc(NC(C)=O)c2)[nH]1` [Compound 032, N-(2-(5-(2-acetamidopyridin-4-yl)-2-(methylthio)-1H-imidazol-4-yl)phenyl)-2-hydroxybenzamide]: the IC50 in assay [2] and in assay [3] was greater than 100 µM throughout.

Regarding `CSc1nc(-c2cccc3c2CCC3NC(=O)c2cc(F)cc(F)c2)c(-c2ccnc(NC(C)=O)c2)[nH]1` (centres unmarked) [Compound 057, N-(4-(5-(2-acetamidopyridin-4-yl)-2-(methylthio)-1H-imidazol-4-yl)-2,3-dihydro-1H-inden-1-yl)-3,5-difluorobenzamide], the IC50 in assay [2] and in assay [3] was greater than 100 µM each time.

What is called IC50 is the midpoint of a concentration-inhibition curve.
